US20150105252A1, “SUBSTITUTED PYRAZOLES AS HERBICIDES” (E I DU PONT DE NEMOURS AND COMPANY, priority 2013, published 2015)

Assays:
barley, winter = assay: Test D preemergence; type: in vivo, Hordeum vulgare; settings: for Plant response rating, Barley, Winter: Preemergence, scale 0 to 100
From the text: (§1) Seeds of plant species selected from bluegrass (annual bluegrass, Poa annua), blackgrass (Alopecurus myosuroides), canarygrass (littleseed canarygrass, Phalaris minor), chickweed (common chickweed, Stellaria media), galium (catchweed bedstraw, Galium aparine), bromegrass, downy (downy bromegrass, Bromus tectorum), field poppy (Papaver rhoeas), field violet (Viola arvensis), foxtail, green (green foxtail, Setaria viridis), deadnettle (henbit deadnettle, Lamium amplexicaule), ryegrass, Italian (Italian ryegrass, Lolium multiflorum), kochia (Kochia scoparia), lambsquarters (Chenopodium album), oilseed rape (Brassica napus), pigweed (redroot pigweed, Amaranthus retroflexus), chamomile (scentless chamomile, Matricaria inodora), speedwell (bird's-eye speedwell, Veronica persica), barley, spring (spring barley, Hordeum vulgare), wheat, spring (spring wheat, Triticum aestivum), buckwheat, wild (wild buckwheat, Polygonum convolvulus), mustard, wild (wild mustard, Sinapis arvensis), oat, wild (wild oat, Avena fatua), radish, wild (wild radish, Raphanus raphanistrum), windgrass (Apera spica-venti), Russian thistle (Salsola kali), barley, winter (winter barley, Hordeum vulgare), and wheat, winter (winter wheat, Triticum aestivum) were planted into a silt loam soil and treated preemergence with test chemicals formulated in a non-phytotoxic solvent mixture which included a surfactant.
(§2) At the same time, these species were planted in pots containing Redi-Earth® planting medium (Scotts Company, 14111 Scottslawn Road, Marysville, Ohio 43041) comprising spaghnum peat moss, vermiculite, wetting agent and starter nutrients and treated with postemergence applications of the test chemicals formulated in the same manner. Plants ranged in height from 2 to 18 cm (1- to 4-leaf stage). Treated plants and controls were maintained in a controlled growth environment for 14 to 21 days after which time all species were compared to controls and visually evaluated. Plant response ratings, summarized in Table D, are based on a scale of 0 to 100 where 0 is no effect and 100 is complete control. A dash (-) response means no test result.

barley, spring = assay: Test D preemergence; type: in vivo, Hordeum vulgare; settings: for Plant response rating, Barley, Spring: Preemergence, scale 0 to 100
From the text: as §1, §2

pigweed [1] = assay: Test D preemergence; type: in vivo, Amaranthus retroflexus; settings: Preemergence, scale 0 to 100
From the text: as §1, §2

ducksalad = assay: Test C flooded paddy test; type: in vivo, Heteranthera limosa; settings: Flood
Outline: (§3)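 Pots were flooded to 3 cm above the soil surface at treatment, compound applied directly to the paddy water, and that depth held throughout. Plants were kept in a greenhouse for 13 to 15 days, then visually rated against untreated controls.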

barnyardgrass = assay: Test C flooded paddy test; type: in vivo, Echinochloa crus-galli; settings: Flood
Outline: as §3

blackgrass = assay: Test D preemergence; type: in vivo, Alopecurus myosuroides; settings: for Plant response rating, Blackgrass: Preemergence, scale 0 to 100
From the text: as §1, §2

oat, wild = assay: Test D preemergence; type: in vivo, Avena fatua; settings: for Plant response rating, Oat, Wild: Preemergence, scale 0 to 100
From the text: as §1, §2

galium = assay: Test D postemergence; type: in vivo, Galium aparine; settings: scale 0 to 100
From the text: as §1, §2

sedge, umbrella = assay: Test C flooded paddy test; type: in vivo, Cyperus difformis; settings: Flood
Outline: as §3

radish, wild = assay: Test D preemergence; type: in vivo, Raphanus raphanistrum; settings: for Plant response rating, Radish, Wild: Preemergence, scale 0 to 100
From the text: as §1, §2

pigweed [2] = assay: Test D postemergence; type: in vivo, Amaranthus retroflexus; settings: scale 0 to 100
From the text: as §1, §2

rice = assay: Test C flooded paddy test; type: in vivo, Oryza sativa; settings: Flood
Outline: as §3

chamomile [3] = assay: Test D preemergence; type: in vivo, Matricaria inodora; settings: for Plant response rating, Chamomile: Preemergence, scale 0 to 100
From the text: as §1, §2

field violet = assay: Test D postemergence; type: in vivo, Viola arvensis; settings: scale 0 to 100
From the text: as §1, §2

chamomile [4] = assay: Test D postemergence; type: in vivo, Matricaria inodora; settings: scale 0 to 100
From the text: as §1, §2

windgrass = assay: Test D postemergence; type: in vivo, Apera spica-venti; settings: scale 0 to 100
From the text: as §1, §2

chickweed = assay: Test D preemergence; type: in vivo, Stellaria media; settings: for Plant response rating, Chickweed: Preemergence, scale 0 to 100
From the text: as §1, §2

[5] = 16 g ai/ha, taken as preemergence
[6] = 31 g ai/ha, scale 0 to 100 (0 no effect, 100 complete control)
[7] = 62 g ai/ha, scale 0 to 100 (0 no effect, 100 complete control)

CCc1cc(C(=O)NOC(C)C)nn1Cc1cccc(OC(F)(F)F)c1 [Compound 70]
85: Plant response rating, Ducksalad (ducksalad; 125 g ai/ha, scale 0 to 100) | Plant response rating, Ducksalad (ducksalad; 250 g ai/ha, scale 0 to 100) | Plant response rating, Sedge, Umbrella (sedge, umbrella; 125 g ai/ha, scale 0 to 100)
10: Plant response rating, Barley, Winter (barley, winter; 250 g ai/ha) | Plant response rating, Blackgrass (blackgrass; 125 g ai/ha) | Plant response rating, Chamomile (chamomile [4]; Postemergence, 16 g ai/ha) | Plant response rating, Chickweed (chickweed; 62 g ai/ha)
0: Plant response rating (scale 0 to 100), Barley, Winter (barley, winter; [5]) | Plant response rating, Barley, Winter (barley, winter; 31 g ai/ha) | Plant response rating, Barley, Winter (barley, winter; 62 g ai/ha) | Plant response rating, Barley, Winter (barley, winter; 125 g ai/ha) | Plant response rating (scale 0 to 100), Barley, Spring (barley, spring; 16 g ai/ha, taken as preemergence, 0 = no effect, 100 = complete control) | Plant response rating, Barley, Spring (barley, spring; 31 g ai/ha) | Plant response rating, Barley, Spring (barley, spring; 62 g ai/ha) | Plant response rating, Barley, Spring (barley, spring; 125 g ai/ha) | Plant response rating, Pigweed (pigweed [1]; 62 g ai/ha) | Plant response rating, Barnyardgrass (barnyardgrass; [6]) | Plant response rating, Barnyardgrass (barnyardgrass; [7]) | Plant response rating (scale 0 to 100), Blackgrass (blackgrass; [5]) | Plant response rating, Blackgrass (blackgrass; 31 g ai/ha) | Plant response rating (scale 0 to 100), Oat, Wild (oat, wild; [5]) | Plant response rating, Oat, Wild (oat, wild; 31 g ai/ha) | Plant response rating, Oat, Wild (oat, wild; 62 g ai/ha) | Plant response rating (scale 0 to 100), Radish, Wild (radish, wild; [5]) | Plant response rating, Radish, Wild (radish, wild; 31 g ai/ha) | Plant response rating, Radish, Wild (radish, wild; 62 g ai/ha) | Plant response rating, Rice (rice; [6]) | Plant response rating, Rice (rice; [7]) | Plant response rating (scale 0 to 100), Chamomile (chamomile [3]; [5]) | Plant response rating, Chamomile (chamomile [3]; 31 g ai/ha) | Plant response rating, Chamomile (chamomile [3]; 62 g ai/ha) | Plant response rating, Windgrass (windgrass; Postemergence, 16 g ai/ha) | Windgrass plant response rating (windgrass; Postemergence, 31 g ai/ha) | Windgrass plant response rating (windgrass; Postemergence, 125 g ai/ha) | Windgrass plant response rating (windgrass; Postemergence, 250 g ai/ha) | Windgrass plant response rating (windgrass; postemergence, 62 g ai/ha) | Plant response rating (scale 0 to 100), Chickweed (chickweed; [5]) | Plant response rating, Chickweed (chickweed; 31 g ai/ha)
15: Plant response rating, Barley, Spring (barley, spring; 250 g ai/ha) | Plant response rating, Chamomile (chamomile [3]; 125 g ai/ha)
5: Plant response rating, Blackgrass (blackgrass; 62 g ai/ha) | Plant response rating, Oat, Wild (oat, wild; 125 g ai/ha)
45: Plant response rating, Barnyardgrass (barnyardgrass; 125 g ai/ha, scale 0 to 100)
65: Plant response rating, Barnyardgrass (barnyardgrass; 250 g ai/ha, scale 0 to 100)
40: Plant response rating, Ducksalad (ducksalad; [7]) | Plant response rating, Pigweed (pigweed [2]; Postemergence, 16 g ai/ha) | Plant response rating, Chamomile (chamomile [3]; 250 g ai/ha) | Field Violet plant response rating (field violet; Postemergence, 31 g ai/ha) | Field Violet plant response rating (field violet; postemergence, 62 g ai/ha) | Chamomile plant response rating (chamomile [4]; Postemergence, 125 g ai/ha)
100: Plant response rating, Radish, Wild (radish, wild; 125 g ai/ha) | Plant response rating, Radish, Wild (radish, wild; 250 g ai/ha) | Plant response rating, Chickweed (chickweed; 125 g ai/ha) | Plant response rating, Chickweed (chickweed; 250 g ai/ha)
60: Galium plant response rating (galium; Postemergence, 31 g ai/ha) | Pigweed plant response rating (pigweed [2]; Postemergence, 31 g ai/ha) | Pigweed plant response rating (pigweed [2]; postemergence, 62 g ai/ha)
50: Plant response rating, Galium (galium; Postemergence, 16 g ai/ha) | Plant response rating, Rice (rice; 250 g ai/ha, scale 0 to 100) | Chamomile plant response rating (chamomile [4]; Postemergence, 250 g ai/ha)
75: Plant response rating, Pigweed (pigweed [1]; 250 g ai/ha) | Galium plant response rating (galium; Postemergence, 125 g ai/ha) | Plant response rating, Sedge, Umbrella (sedge, umbrella; [6]) | Plant response rating, Sedge, Umbrella (sedge, umbrella; [7]) | Pigweed plant response rating (pigweed [2]; Postemergence, 125 g ai/ha) | Field Violet plant response rating (field violet; Postemergence, 125 g ai/ha) | Field Violet plant response rating (field violet; Postemergence, 250 g ai/ha)
30: Plant response rating, Ducksalad (ducksalad; [6]) | Plant response rating, Blackgrass (blackgrass; 250 g ai/ha) | Plant response rating, Oat, Wild (oat, wild; 250 g ai/ha) | Chamomile plant response rating (chamomile [4]; Postemergence, 31 g ai/ha) | Chamomile plant response rating (chamomile [4]; postemergence, 62 g ai/ha)
90: Plant response rating, Sedge, Umbrella (sedge, umbrella; 250 g ai/ha, scale 0 to 100) | Pigweed plant response rating (pigweed [2]; Postemergence, 250 g ai/ha)
25: Plant response rating, Rice (rice; 125 g ai/ha, scale 0 to 100)
20: Plant response rating, Field Violet (field violet; Postemergence, 16 g ai/ha)
70: Galium plant response rating (galium; postemergence, 62 g ai/ha)
80: Galium plant response rating (galium; Postemergence, 250 g ai/ha)
